The record followed here is US4000196A, “1,1,3-Trisubstituted hydroxyguanidines” (E. I. Du Pont de Nemours and Company, priority 1974, dated 1976).

Usually ED50 stands for the midpoint of the dose-response relation.

Series [1] in a line: Chelation of metal ions in aqueous solutions. It is filed as physicochemical. As to the method: (§1) The 1,1,3-trisubstituted hydroxyguanidines of the invention chelate metal ions in aqueous solutions, and the chelate complexes can then be extracted by a solvent such as 1-butanol. The following is an example.
(§2) Aqueous solutions of cobaltous chloride and cupric acetate were prepared by dissolving 0.5 g in separate 5 ml portions of water. One ml of each solution was mixed with 1 ml of an aqueous methanol solution of 1,3-dimethyl-1-benzyl-2-hydroxyguanidine made by dissolving 0.2 g of the hydroxyguanidine in 5 ml methanol and 5 ml water. The addition was followed by an immediate color change.

Series [2] in a line: Chelation of copper ions (cupric acetate) in aqueous solution. It is filed as physicochemical. The following applies: cupric acetate in water mixed with aqueous methanol solution of hydroxyguanidine. As to the method:
as §1, §2

The nature of series [3]: Complex formation with titanium (tetraisopropyl titanate). Type of series: physicochemical. The following applies: methanol solution of tetraisopropyl titanate.
Series [4] in a line: Chelation of cobalt ions (cobaltous chloride) in aqueous solution. It is filed as physicochemical. The following applies: cobaltous chloride in water mixed with aqueous methanol solution of hydroxyguanidine. As to the method: as §1, §2
Series [5] deals with tetrabenazine-induced ptosis in mice. In words: Prevention of tetrabenazine-induced sedation and depression in mice (relief of ptosis). The note with it: Mus musculus, 1 h; oral; 5, 25 and 125 mg/kg; tetrabenazine 32 mg/kg i.p. 30 min later; read 30 min after tetrabenazine; groups of 10 female mice; read-out: ptosis ED50, i.e., the dose which blocked ptosis in 50% of the mice. It is filed as in vivo, Carworth CF1 S female mice. As to the method: This mouse test is predictive of human antidepressant response (Everett, G.M., "The Dopa Response Potentiation Test and Its Use In Screening for Antidepressant Drugs", pp. 164-167 in "Antidepressant Drugs", Proceeding of the First International Symposium, S. Garattini and M. N. G. Dukes, eds., 1967).
Groups of 10 Carworth CF1 S female mice, 18-21 g each, were fasted 1.5 hours and were intubated with a hydroxyguanidine as antagonist to tetrabenazine at oral doses of 5, 25 and 125 mg/kg in 0.20 ml of 1% methyl cellulose (Methocel). Thirty minutes later the mice were challenged with tetrabenazine, 32 mg/kg intraperitoneally (dissolved in 0.20 ml of 0.05M KCl at pH 2.0). One hour after the hydroxyguanidine compound (30 minutes after tetrabenazine) the mice were examined for signs of exploratory activity and ptosis (eye-lid closure). Normal exploratory activity (relief from sedation) was recorded when a mouse lifted by the tail from a group of 10 in a testing box and placed on a stainless steel testing box lid (12.5 inches × 8 inches with 0.33 inch mesh) either turned its head horizontally 30° or moved to the edge of the screen within 10 seconds after being placed on the screen. Relief from ptosis was recorded when exactly 2 seconds after placing the mouse facing the observer, lid closure was less than 50% in both eyes. […]

On to `CNC(=NO)N(C)Cc1ccccc1` [Example 4, 1-Benzyl-1,3-dimethyl-2-hydroxyguanidine], for which the “extraction of the metal ion from water into 1-butanol” value in series [1] (cobalt and copper solutions shaken with 2-3 ml of 1-butanol) is listed as “colored organic layers, indicative of extraction of the metal ion from the water”. Moreover, the “immediate color change of copper solution” value in series [2] is “from blue to green”. Also, the “complex of titanium with the hydroxyguanidine” value in series [3] is reported as “a bright yellow complex of titanium with the hydroxyguanidine was formed”. The “immediate color change of cobalt solution” value in series [4] was “from red to pink”.

Consider `CNC(=NO)N(C)c1ccccc1` [Example 2, 1-Phenyl-1,3-dimethyl-2-hydroxyguanidine], for which the “chelating of metal ions” value in series [1] (aqueous solutions) is “Chelating also occured”. Turning to `CCNC(=NO)N(C)Cc1ccccc1` [Example 5, 1-Benzyl-1-methyl-3-ethyl-2-hydroxyguanidine], in series [5], the ED50 was 19 mg/kg. Still for that read-out and setting: under `CCNC(=NO)N(C)c1ccccc1` [Example 3, 1-Phenyl-1-methyl-3-ethyl-2-hydroxyguanidine] stands 2.7 mg/kg.
